In ChEMBL document CHEMBL4732099, “ROS-responsive and multifunctional anti-Alzheimer prodrugs: Tacrine-ibuprofen hybrids via a phenyl boronate linker” (Eur J Med Chem, 2021):
Active and inactive are the calls of the source. The calls are words filed in the database; no cut-off is given here.

Experiments:
[1] = tested on: SH-SY5Y; assay: Cytotoxicity against human SH-SY5Y cells assessed as reduction in cell viability at 31.25 uM measured after 72 hrs by MTT assay; format: cell-based
[2] = tested on: SH-SY5Y; assay: Neuroprotective activity against H2O2-induced cytotoxicity in human SH-SY5Y cells assessed as cell viability at 5 uM preincubated for 6 hrs followed by H2O2 addition and measured after 24 hrs by MTT assay (reference value: 20%); format: functional; settings: time 30 hrs, read-out: Activity
[3] = tested on: SH-SY5Y; assay: Neuroprotective activity against H2O2-induced cytotoxicity in human SH-SY5Y cells assessed as cell viability at 20 uM preincubated for 6 hrs followed by H2O2 addition and measured after 24 hrs by MTT assay (reference value: 20%); format: functional; settings: time 30 hrs, read-out: Activity
[4] = target: Acetylcholinesterase (Electrophorus electricus) (UniProt O42275); assay: Inhibition of electric eel AChE at 10 uM using acetylthiocholine iodide as substrate preincubated for 5 mins followed by substrate addition and measured after 1 min by Ellman's method relative to control; settings: time 6.0 min
Sequence of Acetylcholinesterase (Electrophorus electricus) (O42275 24-633 limits assumed): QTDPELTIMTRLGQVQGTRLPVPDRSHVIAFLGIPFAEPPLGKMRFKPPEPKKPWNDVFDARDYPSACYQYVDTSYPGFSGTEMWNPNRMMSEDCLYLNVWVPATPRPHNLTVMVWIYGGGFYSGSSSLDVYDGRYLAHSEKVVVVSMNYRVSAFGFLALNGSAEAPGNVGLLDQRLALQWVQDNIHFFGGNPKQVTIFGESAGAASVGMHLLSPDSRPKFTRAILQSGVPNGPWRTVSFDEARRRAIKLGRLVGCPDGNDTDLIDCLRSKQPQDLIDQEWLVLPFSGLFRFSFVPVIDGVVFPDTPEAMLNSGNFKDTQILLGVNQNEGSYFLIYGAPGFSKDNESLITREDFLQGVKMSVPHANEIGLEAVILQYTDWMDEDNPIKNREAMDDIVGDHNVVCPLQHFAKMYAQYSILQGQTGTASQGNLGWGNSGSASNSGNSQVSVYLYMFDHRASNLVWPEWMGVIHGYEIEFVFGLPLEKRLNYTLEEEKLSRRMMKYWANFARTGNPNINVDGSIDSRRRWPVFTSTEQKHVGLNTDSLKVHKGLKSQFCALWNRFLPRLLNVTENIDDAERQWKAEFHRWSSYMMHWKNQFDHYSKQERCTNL

[5] = target: Acetylcholinesterase (Electrophorus electricus, UniProt O42275); assay: Inhibition of electric eel AChE using acetylthiocholine iodide as substrate preincubated for 5 mins followed by substrate addition and measured after 1 min in presence of H2O2 by Ellman's method
Sequence of Acetylcholinesterase (O42275 whole entry): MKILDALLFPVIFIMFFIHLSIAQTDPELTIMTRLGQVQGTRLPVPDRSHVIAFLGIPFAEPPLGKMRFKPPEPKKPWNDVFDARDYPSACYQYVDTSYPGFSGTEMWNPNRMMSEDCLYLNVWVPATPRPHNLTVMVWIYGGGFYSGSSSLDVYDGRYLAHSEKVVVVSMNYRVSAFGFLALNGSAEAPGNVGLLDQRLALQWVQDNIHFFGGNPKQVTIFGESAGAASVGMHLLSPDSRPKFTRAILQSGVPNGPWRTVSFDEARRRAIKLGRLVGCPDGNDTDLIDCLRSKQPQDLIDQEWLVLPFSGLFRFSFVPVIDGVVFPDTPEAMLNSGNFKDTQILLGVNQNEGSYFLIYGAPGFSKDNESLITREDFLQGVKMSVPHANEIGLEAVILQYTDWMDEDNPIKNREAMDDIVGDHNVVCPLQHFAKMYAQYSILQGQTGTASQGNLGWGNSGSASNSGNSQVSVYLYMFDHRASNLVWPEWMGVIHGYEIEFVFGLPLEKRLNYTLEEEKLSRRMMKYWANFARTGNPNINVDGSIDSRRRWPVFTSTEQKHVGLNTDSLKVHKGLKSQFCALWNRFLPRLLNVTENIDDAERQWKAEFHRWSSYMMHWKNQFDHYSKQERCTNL

[6] = tested on: BV-2; assay: Antiinflammatory activity in mouse BV-2 cells assessed as reduction in LPS-induced IL1beta mRNA expression preincubated for 6 hrs followed by LPS stimulation and measured after 24 hrs RT-qPCR analysis; format: functional, cell-based; settings: dose 5-10 µM, time 30.0 hrs
[7] = tested on: BV-2; assay: Antiinflammatory activity in mouse BV-2 cells assessed as reduction in LPS-induced TNFalpha mRNA expression preincubated for 6 hrs followed by LPS stimulation and measured after 24 hrs RT-qPCR analysis; format: functional, cell-based; settings: dose 5-10 µM, time 30.0 hrs
[8] = tested on: BV-2; assay: Antiinflammatory activity in mouse BV-2 cells assessed as fold change in LPS-induced IL1beta mRNA expression at 5 uM preincubated for 6 hrs followed by LPS stimulation and measured after 24 hrs RT-qPCR analysis (reference value: 3.68 +/- 0.02); format: functional; settings: time 30 hrs
[9] = tested on: BV-2; assay: Antiinflammatory activity in mouse BV-2 cells assessed as fold change in LPS-induced IL1beta mRNA expression at 10 uM preincubated for 6 hrs followed by LPS stimulation and measured after 24 hrs RT-qPCR analysis (reference value: 3.68 +/- 0.02); format: functional; settings: time 30 hrs
[10] = tested on: BV-2; assay: Antiinflammatory activity in mouse BV-2 cells assessed as fold change in LPS-induced TNFalpha mRNA expression at 5 uM preincubated for 6 hrs followed by LPS stimulation and measured after 24 hrs RT-qPCR analysis (reference value: 3.86 +/- 0.25); format: functional; settings: time 30 hrs
[11] = tested on: BV-2; assay: Antiinflammatory activity in mouse BV-2 cells assessed as fold change in LPS-induced TNFalpha mRNA expression at 10 uM preincubated for 6 hrs followed by LPS stimulation and measured after 24 hrs RT-qPCR analysis (reference value: 3.86 +/- 0.25); format: functional; settings: time 30 hrs
[12] = tested on: BV-2; assay: Antiinflammatory activity in mouse BV-2 cells assessed as reduction in LPS-induced ROS level at 10 uM preincubated for 6 hrs followed by LPS stimulation and measured after 18 hrs by DCFH-DA staining based laser confocal microscopic analysis; format: functional, cell-based
[13] = tested on: SH-SY5Y; assay: Induction of apoptosis in human SH-SY5Y cells assessed as early apoptotic cells at 10 uM incubated for 24 hrs by annexin V FITC/propidium iodide staining based flow cytometry (reference value: […]); format: cell-based
[14] = tested on: SH-SY5Y; assay: Induction of apoptosis in human SH-SY5Y cells assessed as late apoptotic cells at 10 uM incubated for 24 hrs by annexin V FITC/propidium iodide staining based flow cytometry (reference value: […]); format: cell-based
[15] = tested on: SH-SY5Y; assay: Induction of apoptosis in human SH-SY5Y cells assessed as necrotic cells at 10 uM incubated for 24 hrs by annexin V FITC/propidium iodide staining based flow cytometry (reference value: 0.8 %); format: cell-based
[16] = tested on: SH-SY5Y; assay: Neuroprotective activity against H2O2-induced apoptosis in human SH-SY5Y cells assessed as viable cells at 5 uM preincubated for 6 hrs followed by H2O2 addition and measured after 24 hrs by annexin V FITC/propidium iodide staining based flow cytometry (reference value: 41.7%); format: functional; settings: time 30 hrs, read-out: Activity
[17] = tested on: SH-SY5Y; assay: Neuroprotective activity against H2O2-induced apoptosis in human SH-SY5Y cells assessed as early apoptotic cells at 5 uM preincubated for 6 hrs followed by H2O2 addition and measured after 24 hrs by annexin V FITC/propidium iodide staining based flow cytometry (reference value: 0.9%); format: functional; settings: time 30 hrs
[18] = tested on: SH-SY5Y; assay: Neuroprotective activity against H2O2-induced apoptosis in human SH-SY5Y cells assessed as late apoptotic cells at 5 uM preincubated for 6 hrs followed by H2O2 addition and measured after 24 hrs by annexin V FITC/propidium iodide staining based flow cytometry (reference value: 13.1%); format: functional; settings: time 30 hrs
[19] = tested on: SH-SY5Y; assay: Neuroprotective activity against H2O2-induced apoptosis in human SH-SY5Y cells assessed as necrotic cells at 5 uM preincubated for 6 hrs followed by H2O2 addition and measured after 24 hrs by annexin V FITC/propidium iodide staining based flow cytometry (reference value: 44.3%); format: functional; settings: time 30 hrs
[20] = tested on: SH-SY5Y; assay: Neuroprotective activity against H2O2-induced apoptosis in human SH-SY5Y cells assessed as viable cells at 10 uM preincubated for 6 hrs followed by H2O2 addition and measured after 24 hrs by annexin V FITC/propidium iodide staining based flow cytometry (reference value: 41.7%); format: functional; settings: time 30 hrs, read-out: Activity
[21] = tested on: SH-SY5Y; assay: Neuroprotective activity against H2O2-induced apoptosis in human SH-SY5Y cells assessed as early apoptotic cells at 10 uM preincubated for 6 hrs followed by H2O2 addition and measured after 24 hrs by annexin V FITC/propidium iodide staining based flow cytometry (reference value: 0.9%); format: functional; settings: time 30 hrs
[22] = tested on: SH-SY5Y; assay: Neuroprotective activity against H2O2-induced apoptosis in human SH-SY5Y cells assessed as late apoptotic cells at 10 uM preincubated for 6 hrs followed by H2O2 addition and measured after 24 hrs by annexin V FITC/propidium iodide staining based flow cytometry (reference value: 13.1%); format: functional; settings: time 30 hrs
[23] = tested on: SH-SY5Y; assay: Neuroprotective activity against H2O2-induced apoptosis in human SH-SY5Y cells assessed as necrotic cells at 10 uM preincubated for 6 hrs followed by H2O2 addition and measured after 24 hrs by annexin V FITC/propidium iodide staining based flow cytometry (reference value: 44.3%); format: functional; settings: time 30 hrs
[24] = tested on: SH-SY5Y; assay: Neuroprotective activity against H2O2-induced apoptosis in human SH-SY5Y cells assessed as increase in viable cells preincubated for 6 hrs followed by H2O2 addition and measured after 24 hrs by annexin V FITC/propidium iodide staining based flow cytometry; format: functional, cell-based; settings: dose 5-10 µM, time 30.0 hrs
[25] = tested on: HepG2; assay: Hepatotoxicity in human HepG2 cells assessed as increase in ROS accumulation by measuring increase in green fluorescence at 25 to 50 uM measured after 24 hrs by ROS tracker based laser confocal microscopic analysis; format: toxicity, cell-based; settings: hepg2, 24 h, dose 25-50 µM
[26] = tested on: SH-SY5Y; assay: Neuroprotective activity against H2O2-induced apoptosis in human SH-SY5Y cells assessed as reduction in cells with red fluorescence at 10 uM preincubated for 6 hrs followed by H2O2 addition and measured after 24 hrs by calcein AM/propidium iodide staining based laser confocal microscope; format: functional, cell-based; settings: time 30.0 hrs
[27] = tested on: SH-SY5Y; assay: Neuroprotective activity against H2O2-induced apoptosis in human SH-SY5Y cells assessed as reduction in Bax expression preincubated for 6 hrs followed by H2O2 addition and measured after 24 hrs by Western blot analysis; format: functional, cell-based; settings: dose 5-10 µM, time 30.0 hrs
[28] = tested on: SH-SY5Y; assay: Neuroprotective activity against H2O2-induced apoptosis in human SH-SY5Y cells assessed as reduction in cleaved caspase-3 expression preincubated for 6 hrs followed by H2O2 addition and measured after 24 hrs by Western blot analysis; format: functional, cell-based; settings: dose 5-10 µM, time 30.0 hrs
[29] = tested on: SH-SY5Y; assay: Neuroprotective activity against H2O2-induced apoptosis in human SH-SY5Y cells assessed as increase in Bcl-2 expression preincubated for 6 hrs followed by H2O2 addition and measured after 24 hrs by Western blot analysis; format: functional, cell-based; settings: dose 5-10 µM, time 30.0 hrs
[30] = tested on: Rattus norvegicus; assay: Cognitive enhancing effect in Sprague-Dawley rat model of amyloid beta (25 to 35) peptide-induced memory impairment assessed as reduction in escape latency time at 0.9 mg per 100 g, […] qd for 4 weeks administered via gavage and measured after 4 to 5 days by Morris water maze test; format: functional, organism-based; settings: time 32-33 day
[31] = tested on: Rattus norvegicus; assay: Cognitive enhancing effect in Sprague-Dawley rat model of amyloid beta (25 to 35) peptide-induced memory impairment assessed as time spent in target platform at 0.9 mg per 100 g, […] qd for 4 weeks administered via gavage and measured after 5 days by Morris water maze test (reference value: 0.5 sec); format: functional; settings: time 33 day
[32] = tested on: Rattus norvegicus; assay: Cognitive enhancing effect in Sprague-Dawley rat model of amyloid beta (25 to 35) peptide-induced memory impairment assessed as number of platform crossing at 0.9 mg per 100 g, […] qd for 4 weeks administered via gavage and measured after 5 days by Morris water maze test (reference value: 0.4); format: functional; settings: time 33 day
[33] = Prodrug activation assessed as hydrolysis of benzyl ester bonds in presence of H2O2 by 1H-NMR analysis
[34] = in vitro; settings: human, SH-SY5Y cells
[35] = tested on: SH-SY5Y; assay: Cytotoxicity against human SH-SY5Y cells assessed as reduction in cell viability at 7.81 to 15.62 uM measured after 72 hrs by MTT assay; format: cell-based; settings: dose 7.81-15.62 µM
[36] = tested on: SH-SY5Y; assay: Neuroprotective activity against H2O2-induced apoptosis in human SH-SY5Y cells assessed as reduction in Bax expression at 10 uM preincubated for 6 hrs followed by H2O2 addition and measured after 24 hrs by Western blot analysis; format: functional, cell-based; settings: time 30.0 hrs
[37] = tested on: SH-SY5Y; assay: Neuroprotective activity against H2O2-induced apoptosis in human SH-SY5Y cells assessed as reduction in cleaved caspase-3 expression at 10 uM preincubated for 6 hrs followed by H2O2 addition and measured after 24 hrs by Western blot analysis; format: functional, cell-based; settings: time 30.0 hrs
[38] = tested on: SH-SY5Y; assay: Neuroprotective activity against H2O2-induced apoptosis in human SH-SY5Y cells assessed as increase in Bcl-2 expression at 10 uM preincubated for 6 hrs followed by H2O2 addition and measured after 24 hrs by Western blot analysis; format: functional, cell-based; settings: time 30.0 hrs

With `Cc1cc(COC(=O)NCCCCCCNc2c3c(nc4ccccc24)CCCC3)c(OCc2ccc(B3OC(C)(C)C(C)(C)O3)cc2)c(COC(=O)C(C)c2ccc(CC(C)C)cc2)c1` (stereo not drawn) the Activity [1] was “Non-Toxic”, the viability at 5 µM [2] was greater than 50% and the viability at 20 µM [3] was greater than 80%. The inhibition [4] was 47.2%, the IC50 [5] was 39.2 nM and the Activity [6] was “Dose-dependent effect”. For the same compound, the Activity [7] was “Dose-dependent effect”, the “fold change (FC)” value [8] was 1.36 and the “fold change (FC)” value [9] was 0.86. The “fold change (FC)” value [10] was 1.6, the “fold change (FC)” value [11] was 1.2 and the Activity [12] was “Active”. It also gave an Activity [13] of 1.65%, an Activity [14] of 2.57% and an Activity [15] of 2.48%. The viability at 5 µM [16] was 73.7%, the Activity [17] was 1.75% and the Activity [18] was 10.5%. It also gave an Activity [19] of 14.1%, a viability at 10 µM [20] of 86.6% and an Activity [21] of 1.17%. The Activity [22] was 4.97%, the Activity [23] was 7.3% and the Activity [24] was “Dose-dependent effect”. The Activity [25] was “Toxic”, the Activity [26] was “Active” and the Activity [27] was “Dose-dependent effect”. The Activity [28] was “Dose-dependent effect”, the Activity [29] was “Dose-dependent effect” and the Activity [30] was “Active”. For the same compound, the Time [31] was 2.2 s, the Activity [32] was 4.2 and the Drug metabolism [33] was “Metabolite_Detected”. It also gave a viability at 24 h, 5 µM [34] of 90.4%.
For `Cc1cc(COC(=O)NCCNc2c3c(nc4ccccc24)CCCC3)c(OCc2ccc(B3OC(C)(C)C(C)(C)O3)cc2)c(COC(=O)C(C)c2ccc(CC(C)C)cc2)c1` (stereo not drawn), the Activity [1] was “Toxic”, the Activity [35] was “Non-Toxic” and the viability at 5 µM [2] was greater than 50%. It also gave a viability at 20 µM [3] greater than 80%, an inhibition [4] of 28.2% and an IC50 [5] of 608 nM.
For `COc1cc(/C=C/C(=O)O)ccc1O`, the Activity [36] was “Active”, the Activity [37] was “Active” and the Activity [38] was “Active”.
